This note sets out measurements from patent US7956077B2, “2-{-3,′2-(phenyl)-oxazol-4-ylmethoxyl-cyclohexyl methoxy}-propionic acid derivatives used as peroxisome proliferator-activated receptor (PPAR) ligands for the treatment of hyperlipidemia and diabetes” (Sanofi-Aventis Deutschland GmbH, priority 2004, dated 2011).

Several values for one entry are separate records, joined by “and”; a condition that tells them apart may be missing. Equal values may be shown once.

Experiment [1] has as its target T1, human PPARgamma (Homo sapiens, UniProt P37231).
T1 construct: human PPARgamma receptor (amino acids 1152-Y475); expressed in transfected cells; host or cells: HEK cells, transiently transfected with pcDNA3-GAL4-humanPPARgammaLBD
T1 sequence (P37231 182-477 isoform P37231-2 limits assumed): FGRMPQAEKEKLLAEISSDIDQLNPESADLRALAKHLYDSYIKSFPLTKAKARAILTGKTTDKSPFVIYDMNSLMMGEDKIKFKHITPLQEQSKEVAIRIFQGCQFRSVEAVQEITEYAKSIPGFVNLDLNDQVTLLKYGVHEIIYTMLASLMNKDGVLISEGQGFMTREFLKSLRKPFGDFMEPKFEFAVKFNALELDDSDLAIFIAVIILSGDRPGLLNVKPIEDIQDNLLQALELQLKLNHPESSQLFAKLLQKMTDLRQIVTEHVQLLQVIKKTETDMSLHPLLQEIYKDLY
Kind of experiment: Cellular PPARgamma assay (transiently transfected HEK cells, luciferase reporter). The following applies: HEK cells transiently transfected with GAL4-humanPPARgammaLBD, 48 h incubation. The format is cell-based. From the text:
Determination of EC50 Values of PPAR Agonists in the Cellular PPARgamma Assay
A transient transfection system is employed to determine the cellular PPARgamma activity of PPAR agonists. It is based on the use of a luciferase reporter plasmid (pGL3basic-5×GAL4-TK) and of a PPARgamma expression plasmid (pcDNA3-GAL4-humanPPARgammaLBD). Both plasmids are transiently transfected into human mbryonic kidney cells (HEK cells). There is then expression in these cells of the usion protein GAL4-humanPPARgammaLBD which binds to the GAL4 binding sites of he reporter plasmid. In the presence of a PPARgamma-active ligand, the activated usion protein GAL4-humanPPARgammaLBD induces expression of the luciferase reporter gene, which can be detected in the form of a chemiluminescence signal after addition of a luciferase substrate. As a difference from the stably transfected PPARalpha reporter cell line, in the cellular PPARgamma assay the two components (luciferase reporter plasmid and PPARgamma expression plasmid) are transiently transfected into HEK cells because stable and permanent expression of the PPARgamma fusion protein is cytotoxic.
Construction of the Plasmids
The luciferase reporter plasmid pGL3basic-5×GAL4-TK is based on the vector pGL3basic from Promega. The reporter plasmid is prepared by cloning five binding sites of the yeast transcription factor GAL4 (each binding site with the sequence 5′-CTCGGAGGACAGTACTCCG-3′), together with a 160 bp-long thymidine kinase promoter section (Genbank Accession # AF027128) 5′-upstream into pGL3basic. 3′-downstream of the thymidine kinase promoter is the complete luciferase gene from Photinus pyralis (Genbank Accession # M15077), which is already a constituent of the plasmid pGL3basic used. The cloning and sequencing of the reporter plasmid pGL3basic-5×GAL4-TK took place in analogy to the description in Sambrook J. et. al. (Molecular cloning, Cold Spring Harbor Laboratory Press, 1989).
The PPARgamma expression plasmid pcDNA3-GAL4-humanPPARgammaLBD was prepared by first cloning the cDNA coding for amino acids 1-147 of the yeast transcription factor GAL4 (Genbank Accession # P04386) into the plasmid pcDNA3 (from Invitrogen) 3′-downstream of the cytomegalovirus promoter. Subsequently, the cDNA of the ligand-binding domain (LBD) of the human PPARgamma receptor (amino acids 1152-Y475; Accession # g1480099) 3′-downstream of the GAL4 DNA binding domain was cloned. Cloning and sequencing of the PPARgamma expression plasmid pcDNA3-GAL4-humanPPARgammaLBD again took place in analogy to the description in Sambrook J. et. al. (Molecular cloning, Cold Spring Harbor Laboratory Press, 1989). Besides the luciferase reporter plasmid pGL3basic-5×GAL4-TK and the PPARgamma expression plasmid pcDNA3-GAL4-humanPPARgammaLBD, also used for the cellular PPARgamma assay are the reference plasmid pRL-CMV (from Promega) and the plasmid pBluescript SK(+) from Stratagene. All four plasmids were prepared using a plasmid preparation kit from Qiagen, which ensured a plasmid quality with a minimal endotoxin content, before transfection into HEK cells.
The activity of PPARgamma agonists is determined in a 4-day assay which is described below. Before the transfection, HEK cells are cultivated in DMEM medium (#41965-039, Invitrogen) which is mixed with the following additions: 10% FCS (#16000-044, Invitrogen), 1% penicillin-streptomycin solution (#15140-122, Invitrogen) and 2 mM L-glutamine (#25030-024, Invitrogen).
Firstly, solution A, a transfection mixture which contains all four plasmids previously described in addition to DMEM medium, is prepared. […]
(Reporter assays use an easily measured gene product as a stand-in for the process of interest.)

In experiment [2] the target is T2, human PPARalpha (Homo sapiens, UniProt Q07869).
T2 construct: human PPARalpha receptor (amino acids S167-Y468); expressed in transfected cells; host or cells: HEK cells, stably transfected (pcDNA3 construct)
T2 sequence (Q07869 167-468): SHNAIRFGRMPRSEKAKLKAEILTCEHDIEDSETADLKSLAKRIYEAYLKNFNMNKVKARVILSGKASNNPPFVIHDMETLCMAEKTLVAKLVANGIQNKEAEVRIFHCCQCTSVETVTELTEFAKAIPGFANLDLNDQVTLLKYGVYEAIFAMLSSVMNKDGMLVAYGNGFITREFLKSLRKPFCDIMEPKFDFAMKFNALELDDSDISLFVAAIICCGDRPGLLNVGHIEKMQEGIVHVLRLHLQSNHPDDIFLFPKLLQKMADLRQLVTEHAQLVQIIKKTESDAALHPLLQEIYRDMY
The experiment is described as follows: Cellular PPARalpha assay (stably transfected HEK luciferase reporter cell line). The conditions noted are these: PPARalpha reporter cell line (HEK, GR-GAL4-humanPPARalpha-LBD), 24 h incubation. The format is cell-based. On the procedure:
Determination of EC50 Values of PPAR Agonists in the Cellular PPARalpha Assay
The potency of substances which bind to human PPARalpha and activate it in an agonistic manner is analyzed using a stably transfected HEK cell line (HEK=human embryo kidney) which is referred to here as PPARalpha reporter cell line. It contains two genetic elements, a luciferase reporter element (pdeltaM-GAL4-Luc-Zeo) and a PPARalpha fusion protein (GR-GAL4-humanPPARalpha-LBD) which mediates expression of the luciferase reporter element depending on a PPARalpha ligand. The stably and constitutively expressed fusion protein GR-GAL4-humanPPARalpha-LBD binds in the cell nucleus of the PPARalpha reporter cell line via the GAL4 protein portion to the GAL4 DNA binding motifs 5′-upstream of the luciferase reporter element which is stably integrated in the genome of the cell line. There is only little expression of the luciferase reporter gene without addition of a PPARalpha ligand if fatty acid-depleted fetal calf serum (cs-FCS) is used in the assay. PPARalpha ligands bind and activate the PPARalpha fusion protein and thereby bring about expression of the luciferase reporter gene. The luciferase which is formed can be detected by means of chemiluminescence via an appropriate substrate.
Construction of the Cell Line
The PPARalpha reporter cell line was prepared in two steps. Firstly, the luciferase reporter element was constructed and stably transfected into HEK cells. For this purpose, five binding sites of the yeast transcription factor GAL4 (in each case 5′-CGGAGTACTGTCCTCCGAG-3′) were cloned in 5′-upstream of a 68 bp-long minimal MMTV promoter (Genbank Accession # V01175). The minimal MMTV promoter section contains a CCAAT box and a TATA element in order to enable efficient transcription by RNA polymerase II. The cloning and sequencing of the GAL4-MMTV construct took place in analogy to the description of Sambrook J. et. al. (Molecular cloning, Cold Spring Harbor Laboratory Press, 1989). Then the complete Photinus pyralis luciferase gene (Genbank Accession # M15077) was cloned in 3′-downstream of the GAL4-MMTV element. After sequencing, the luciferase reporter element consisting of five GAL4 binding sites, MMTV promoter and luciferase gene was subcloned into a plasmid which confers zeozin resistance in order to obtain the plasmid pdeltaM-GAL4-Luc-Zeo. This vector was transfected into HEK cells in accordance with the statements in Ausubel, F. M. et al. (Current protocols in molecular biology, Vol. 1-3, John Wiley & Sons, Inc., 1995).
In a second step, the PPARalpha fusion protein (GR-GAL4-humanPPARalpha-LBD) was introduced into the stable cell clone described. For this purpose, initially the cDNA coding for the N-terminal 76 amino acids of the glucocorticoid receptor (Genbank Accession # P04150) was linked to the cDNA section coding for amino acids 1-147 of the yeast transcription factor GAL4 (Genbank Accession # P04386). The cDNA of the ligand-binding domain of the human PPARalpha receptor (amino acids S167-Y468; Genbank Accession # S74349) was cloned in at the 3′ end of this GR-GAL4 construct. The fusion construct prepared in this way (GR-GAL4-humanPPARalpha-LBD) was subcloned into the plasmid pcDNA3 (from Invitrogen) in order to enable constitutive expression therein by the cytomegalovirus promoter. This plasmid was linearized with a restriction endonuclease and stably transfected into the previously described cell clone containing the luciferase reporter element. The finished PPARalpha reporter cell line which contains a luciferase reporter element and constitutively expresses the PPARalpha fusion protein (GR-GAL4-humanPPARalpha-LBD) was isolated by selection with zeozin (0.5 mg/ml) and G418 (0.5 mg/ml).
The activity of PPARalpha agonists is determined in a 3-day assay which is described below: […]

Consider `CCCC(C)(OC[C@@H]1CCC[C@H](OCc2nc(-c3cccc(OC)c3)oc2CC)C1)C(=O)O` (mixture of isomers) [Example 10, 2-{(1R,3S )-3-[5-Ethyl-2-(3-methoxyphenyl)oxazol-4-ylmethoxy]cyclohexylmethoxy}-2-methylpentanoic acid], for which the half-maximal effective concentration (EC50) in experiment [1] was 130 nM; in experiment [2], 54 nM.

For the compound `CCCC(C)(OC[C@@H]1CCC[C@H](OCc2nc(-c3ccc(C)cc3)oc2CC)C1)C(=O)O` (mixture of isomers) [Example 11, 2-[(1R,3S)-3-(5-Ethyl-2-p-tolyloxazol-4-ylmethoxy)cyclohexylmethoxy]-2-methyl-pentanoic acid], the concentration giving a half-maximal response (EC50) was determined as 870 nM in experiment [1] and 4.1 nM in experiment [2].

For the compound `CCCC(C)(OC[C@@H]1CCC[C@H](OCc2nc(-c3ccc(CC(C)C)cc3)oc2CC)C1)C(=O)O` (mixture of isomers) [Example 12, 2-{(1R,3S)-3-[5-Ethyl-2-(4-isobutylphenyl)oxazol-4-ylmethoxy]cyclohexylmethoxy}-2-methylpentanoic acid], the EC50 in experiment [1] was 75 nM; in experiment [2], 12 nM.

With `CCCC(C)(OC[C@@H]1CCC[C@H](OCc2nc(-c3ccc4ccccc4c3)oc2CC)C1)C(=O)O` (mixture of isomers) [Example 13, 2-{(1R,3S)-3-[5-Ethyl-2-(naphth-2-yl)oxazol-4-ylmethoxy]cyclohexylmethoxy}-2-methylpentanoic acid], the figures for the concentration for a half-maximal effect (EC50) in experiment [1] and in experiment [2] were 130 nM and 6.6 nM, respectively.

Regarding `CCCC(C)(OC[C@@H]1CCC[C@H](OCc2nc(-c3ccc(C(C)C)cc3)oc2CC)C1)C(=O)O` (mixture of isomers) [Example 14, 2-{(1R,3S)-3-[5-Ethyl-2-(4-isopropylphenyl)oxazol-4-ylmethoxy}cyclohexylmethoxy]-2-methylpentanoic acid], in experiment [2], the 50% effective concentration (EC50) was 0.38 nM and 0.53 nM.

Turning to `CCCC(C)(OC[C@@H]1CCC[C@H](OCc2nc(-c3ccc4ccccc4c3)oc2C)C1)C(=O)O` (mixture of isomers) [Example 15, 2-Methyl-2-{(1R,3S)-3-[5-methyl-2-(naphth-2-yl)oxazol-4-ylmethoxy]-cyclohexylmethoxy}pentanoic acid], the EC50 is 160 nM in experiment [1] and 0.39 nM in experiment [2].

Regarding `CCc1oc(-c2cccc(OC)c2)nc1CO[C@H]1CCC[C@@H](COC(C)(Cc2ccccc2)C(=O)O)C1` (mixture of isomers) [Example 16, 2-{(1R,3S)-3-[5-Ethyl-2-(3-methoxyphenyl)oxazol-4-ylmethoxy]cyclohexylmethoxy}-2-methyl-3-phenylpropionic acid], the figures for the EC50 in experiment [1] and in experiment [2] were 400 nM and 17 nM, respectively.

Regarding `CCc1oc(-c2ccc(C)cc2)nc1CO[C@H]1CCC[C@@H](COC(C)(Cc2ccccc2)C(=O)O)C1` (mixture of isomers) [Example 17, 2-[(1R,3S)-3-(5-Ethyl-2-p-tolyloxazol-4-ylmethoxy)cyclohexylmethoxy]-2-methyl-3-phenylpropionic acid], the EC50 in experiment [1] is 510 nM; in experiment [2], 0.16 nM.

Take `CCc1oc(-c2ccc(CC(C)C)cc2)nc1CO[C@H]1CCC[C@@H](COC(C)(Cc2ccccc2)C(=O)O)C1` (mixture of isomers) [Example 18, 2-{(1R,3S)-3-[5-Ethyl-2-(4-isobutylphenyl)oxazol-4-ylmethoxy]cyclohexylmethoxy}-2-methyl-3-phenylpropionic acid]: the EC50 is 150 nM in experiment [1] and 2.6 nM in experiment [2].

Regarding `CCc1oc(-c2ccc3ccccc3c2)nc1CO[C@H]1CCC[C@@H](COC(C)(Cc2ccccc2)C(=O)O)C1` (mixture of isomers) [Example 19, 2-{(1R,3S)-3-[5-Ethyl-2-(naphth-2-yl)oxazol-4-ylmethoxy]cyclohexylmethoxy}-2-methyl-3-phenylpropionic acid], the half-maximal effective concentration (EC50) was determined as 540 nM in experiment [1] and 0.38 nM in experiment [2].

In experiment [1], `Cc1ccc(-c2nc(CO[C@H]3CCC[C@@H](COC(C)(C)C(=O)O)C3)c(C)o2)cc1` [*] had an EC50 above 10000 nM.

One may read the EC50 as the concentration needed to bring the measured effect to its halfway point. Low readings indicate a more potent agent, high ones a less potent agent.
